Data reported in patent US12263176B2, “Pharmaceutical liquid compositions of meloxicam” (SLAYBACK PHARMA LLC, priority 2020, dated 2025).

Key:
[1] = cited from earlier work
[2] = following oral administration; cited from earlier work
[3] = test system: acute post-operative pain (Brennan) model in Sprague Dawley rats; experiment: Acute post-operative pain (Brennan) model, paw withdrawal latency / mechanical hyperalgesia; type: in vivo; settings: 3 mg/kg IV
Procedure: Animal Study: Evaluation of Efficacy of Meloxicam Compositions in Acute Post-operative Pain (Brennan) Model in Sprague Dawley Rats.
The analgesic efficacy of Composition K was studied in comparison with Anjeso® and ketorolac tromethamine drug products in a rat acute post-operative pain model at a dose of 3 mg/kg administered by intravenous route.
Meloxicam compositions (Anjeso® & Composition K) & ketorolac drug products were tested in an acute post-operative (Brennan) pain model in rats after intravenous administration. Average paw withdrawal latency & mechanical hyperalgesia (pain assessment) parameters were assessed in rats after intravenous administration of vehicle (0.9% saline), ketorolac tromethamine (3 mg/kg), Anjeso® (3 mg/kg), Composition K (3 mg/kg). Evaluations began 30 minutes following surgery, and were continued for 240 minutes.
Mean paw withdrawal latency was between 8.6 to 8.9 across all the treatment groups. […] Average paw withdrawal latency in normal animals is 9.7 seconds whereas as it was 3.5 seconds in operated animals.

Row | Structure (SMILES) | solubility in methanol ([1]; methanol) | solubility in water ([1]; water) | time of maximum observed plasma concentration (Tmax) [2] | increased average paw withdrawal latency compared with vehicle (0.9% saline) [3] | effect on development of mechanical allodynia ([3]; from 45 minutes till 240 minutes of recording, statistically significant at 45, 90 and 120 minutes)
1 | Cc1cnc(NC(=O)C2=C(O)c3ccccc3S(=O)(=O)N2C)s1 [Meloxicam, 4-hydroxy-2-methyl-N-(5-methyl-2-thiazolyl)-2H-1,2-benzothiazine-3-carbox-amide-1,1-dioxide] | very slightly soluble | practically insoluble | 5 to 6 h |  | 
2 | O=C(c1ccccc1)c1ccc2n1CCC2C(=O)O (centres unmarked) [ketorolac tromethamine] |  |  |  | 68% | significantly prevented the development of mechanical allodynia
